# From BindingDB's records for doi:10.1016/j.bmcl.2008.01.028 (Nih, 2008)
# Target: cAMP-specific 3',5'-cyclic phosphodiesterase 4A (Homo sapiens, UniProt P27815)
# Assay: PDE4A Inhibition Assay
# Settings: not given
# Description: Inhibition of PDE4A was performed using IMAP technology (Molecular Devices, CA). PDE4A1A mixture was dispensed into 1536-well black/solid bottom assay plates (Greiner Bio-One North America, NC) using a Flying Reagent Dispenser (Aurora Discovery, CA). The plates were centrifuged at 1000 rpm for 30s and compound was transferred to the assay plate using a Kalypsys pin tool. After incubation, cAMP was dispensed into the plates to initiate the reaction. IMAP binding reagent was then added to the assay plate after the reaction.
# Chain of cAMP-specific 3',5'-cyclic phosphodiesterase 4A (P27815 whole entry): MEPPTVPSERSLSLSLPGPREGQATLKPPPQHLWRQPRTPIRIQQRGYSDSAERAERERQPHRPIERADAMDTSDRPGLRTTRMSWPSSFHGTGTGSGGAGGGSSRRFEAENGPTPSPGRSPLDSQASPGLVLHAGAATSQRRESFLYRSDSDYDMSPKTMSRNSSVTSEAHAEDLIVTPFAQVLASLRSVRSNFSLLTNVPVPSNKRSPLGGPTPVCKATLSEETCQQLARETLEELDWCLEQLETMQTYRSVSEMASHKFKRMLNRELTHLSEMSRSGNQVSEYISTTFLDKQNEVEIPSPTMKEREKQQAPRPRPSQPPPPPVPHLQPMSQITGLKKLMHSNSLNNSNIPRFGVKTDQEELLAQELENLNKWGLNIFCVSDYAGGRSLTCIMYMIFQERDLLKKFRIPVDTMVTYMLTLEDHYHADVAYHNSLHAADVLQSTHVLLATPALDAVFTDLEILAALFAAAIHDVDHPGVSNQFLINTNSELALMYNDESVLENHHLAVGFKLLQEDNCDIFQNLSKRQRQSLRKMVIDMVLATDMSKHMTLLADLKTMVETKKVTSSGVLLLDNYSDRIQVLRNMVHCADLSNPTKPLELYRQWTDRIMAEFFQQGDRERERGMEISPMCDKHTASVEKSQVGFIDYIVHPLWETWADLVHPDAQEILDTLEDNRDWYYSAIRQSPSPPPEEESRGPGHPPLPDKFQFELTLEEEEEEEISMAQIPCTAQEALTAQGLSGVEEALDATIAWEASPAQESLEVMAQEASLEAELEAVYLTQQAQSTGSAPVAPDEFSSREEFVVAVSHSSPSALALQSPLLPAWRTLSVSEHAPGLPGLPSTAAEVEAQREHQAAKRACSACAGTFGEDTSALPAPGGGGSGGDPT
row,IC50 [µM],SMILES
1,8.4,COc1ccc(C2=Nn3c(nnc3-c3ccc(OC)cc3)SC2)cc1
2,12.6,COc1cccc(-c2nnc3n2N=C(c2cc(OC)ccc2OC)CS3)c1
3,3.2,"COc1cccc(C2=Nn3c(nnc3-c3ccccc3C)SC2)c1 [triazolothiadiazine, 7I]"
4,14.1,"COc1cccc(C2=Nn3c(nnc3-c3ccccc3O)SC2)c1 [triazolothiadiazine, 7K]"
5,1.7,"COc1ccc(C2=Nn3c(nnc3-c3cc(OC)ccc3OC)SC2)cc1 [triazolothiadiazine, 8F]"
6,7.5,"COc1ccc(C2=Nn3c(nnc3-c3ccc(OC)c(OC)c3)SC2)cc1 [triazolothiadiazine, 8G]"
7,12.5,"COc1ccc(C2=Nn3c(nnc3-c3ccccc3C)SC2)cc1 [triazolothiadiazine, 8I]"
8,4.5,"CCOc1ccccc1-c1nnc2n1N=C(c1ccc(OC)cc1)CS2 [triazolothiadiazine, 8J]"
9,15,"COc1ccc(C2=Nn3c(nnc3-c3ccccc3OC)SC2)c(OC)c1 [triazolothiadiazine, 9A]"
10,> 20,"COc1ccc(C2=Nn3c(nnc3-c3ccc(OC)cc3OC)SC2)c(OC)c1 [triazolothiadiazine, 9E]"
11,7.5,"COc1ccc(C2=Nn3c(nnc3-c3cc(OC)ccc3OC)SC2)c(OC)c1 [triazolothiadiazine, 9F]"
12,> 20,"COc1cc(OC)cc(-c2nnc3n2N=C(c2ccc(OC)cc2OC)CS3)c1 [triazolothiadiazine, 9H]"
13,> 20,"CCOc1ccccc1-c1nnc2n1N=C(c1ccc(OC)cc1OC)CS2 [triazolothiadiazine, 9J]"
14,5.3,"COc1ccc(-c2nnc3n2N=C(c2cc(OC)ccc2OC)CS3)c(OC)c1 [triazolothiadiazine, 10E]"
15,6.9,"COc1ccc(OC)c(C2=Nn3c(nnc3-c3ccc(OC)c(OC)c3)SC2)c1 [triazolothiadiazine, 10G]"
16,12.7,"COc1cc(OC)cc(-c2nnc3n2N=C(c2cc(OC)ccc2OC)CS3)c1 [triazolothiadiazine, 10H]"
17,6.3,"COc1ccc(OC)c(C2=Nn3c(nnc3-c3ccccc3C)SC2)c1 [triazolothiadiazine, 10I]"
18,13.4,"CCOc1ccccc1-c1nnc2n1N=C(c1cc(OC)ccc1OC)CS2 [triazolothiadiazine, 10J]"
19,> 20,"COc1ccc(OC)c(-c2nnc3n2N=C(c2c(OC)cccc2OC)CS3)c1 [triazolothiadiazine, 11F]"
20,19.6,"COc1cc(OC)cc(-c2nnc3n2N=C(c2c(OC)cccc2OC)CS3)c1 [triazolothiadiazine, 11H]"
21,14.1,"COc1cccc(OC)c1C1=Nn2c(nnc2-c2ccccc2C)SC1 [triazolothiadiazine, 11I]"
22,> 20,"CCOc1ccccc1-c1nnc2n1N=C(c1c(OC)cccc1OC)CS2 [triazolothiadiazine, 11J]"
23,> 20,"COc1cccc(OC)c1C1=Nn2c(nnc2-c2ccccc2O)SC1 [triazolothiadiazine, 11K]"

# More lines, now with the values behind:
row,SMILES,IC50 [µM]
1,"CCOc1ccccc1-c1nnc2n1N=C(c1cccc(OC)c1)CS2 [triazolothiadiazine, 7J]",11.2
2,"COc1ccc(C2=Nn3c(nnc3-c3ccccc3OC)SC2)cc1 [triazolothiadiazine, 8A]",> 20
3,"COc1ccc(C2=Nn3c(nnc3-c3cccc(OC)c3)SC2)cc1 [triazolothiadiazine, 8B]",12.6
4,"COc1ccc(C2=Nn3c(nnc3-c3cccc(OC)c3OC)SC2)cc1 [triazolothiadiazine, 8D]",> 20
5,"COc1ccc(C2=Nn3c(nnc3-c3ccc(OC)cc3OC)SC2)cc1 [triazolothiadiazine, 8E]",> 20
6,"COc1ccc(C2=Nn3c(nnc3-c3cc(OC)cc(OC)c3)SC2)cc1 [triazolothiadiazine, 8H]",9.5
7,"COc1ccc(C2=Nn3c(nnc3-c3ccccc3O)SC2)cc1 [triazolothiadiazine, 8K]",8.4
8,"COc1cccc(-c2nnc3n2N=C(c2ccc(OC)cc2OC)CS3)c1 [triazolothiadiazine, 9B]",14.1
9,"COc1ccc(-c2nnc3n2N=C(c2ccc(OC)cc2OC)CS3)cc1 [triazolothiadiazine, 9C]",13.4
10,"COc1ccc(C2=Nn3c(nnc3-c3cccc(OC)c3OC)SC2)c(OC)c1 [triazolothiadiazine, 9D]",> 20
11,"COc1ccc(C2=Nn3c(nnc3-c3ccc(OC)c(OC)c3)SC2)c(OC)c1 [triazolothiadiazine, 9G]",6.7
12,"COc1ccc(C2=Nn3c(nnc3-c3ccccc3C)SC2)c(OC)c1 [triazolothiadiazine, 9I]",> 20
13,"COc1ccc(C2=Nn3c(nnc3-c3ccccc3O)SC2)c(OC)c1 [triazolothiadiazine, 9K]",> 20
14,"COc1ccc(OC)c(C2=Nn3c(nnc3-c3ccccc3OC)SC2)c1 [triazolothiadiazine, 10A]",8.9
15,"COc1ccc(-c2nnc3n2N=C(c2cc(OC)ccc2OC)CS3)cc1 [triazolothiadiazine, 10C]",10.1
16,"COc1ccc(OC)c(C2=Nn3c(nnc3-c3cccc(OC)c3OC)SC2)c1 [triazolothiadiazine, 10D]",11.9
17,"COc1ccc(OC)c(C2=Nn3c(nnc3-c3cc(OC)ccc3OC)SC2)c1 [triazolothiadiazine, 10F]",11.9
18,"COc1ccc(OC)c(C2=Nn3c(nnc3-c3ccccc3O)SC2)c1 [triazolothiadiazine, 10K]",> 20
19,"COc1ccccc1-c1nnc2n1N=C(c1c(OC)cccc1OC)CS2 [triazolothiadiazine, 11A]",> 20
20,"COc1cccc(-c2nnc3n2N=C(c2c(OC)cccc2OC)CS3)c1 [triazolothiadiazine, 11B]",> 20
21,"COc1ccc(-c2nnc3n2N=C(c2c(OC)cccc2OC)CS3)cc1 [triazolothiadiazine, 11C]",19.7
22,"COc1cccc(-c2nnc3n2N=C(c2c(OC)cccc2OC)CS3)c1OC [triazolothiadiazine, 11D]",> 20
23,"COc1ccc(-c2nnc3n2N=C(c2c(OC)cccc2OC)CS3)c(OC)c1 [triazolothiadiazine, 11E]",> 20
24,"COc1ccc(-c2nnc3n2N=C(c2c(OC)cccc2OC)CS3)cc1OC [triazolothiadiazine, 11G]",14.1

# Same assay, conditions: pH 7.2; 22 °C
row,IC50 [µM],SMILES
1,0.126,"COc1cccc(-c2nnc3n2N=C(c2ccc(OC)c(OC)c2)CS3)c1 [triazolothiadiazine, 5B]"
2,0.0889,"COc1ccc(-c2nnc3n2N=C(c2ccc(OC)c(OC)c2)CS3)cc1 [triazolothiadiazine, 5C]"
3,0.079,"COc1ccc(-c2nnc3n2N=C(c2ccc(OC)c(OC)c2)CS3)c(OC)c1 [triazolothiadiazine, 5E]"
4,14.1,"COc1ccc(-c2nnc3n2N=C(c2ccccc2OC)CS3)cc1 [triazolothiadiazine, 6C]"
5,19.7,"COc1ccc(-c2nnc3n2N=C(c2ccccc2OC)CS3)c(OC)c1 [triazolothiadiazine, 6E]"
6,19.6,"COc1ccc(OC)c(-c2nnc3n2N=C(c2ccccc2OC)CS3)c1 [triazolothiadiazine, 6F]"
7,14.1,"COc1ccccc1C1=Nn2c(nnc2-c2ccccc2C)SC1 [triazolothiadiazine, 6I]"
8,> 20,"CCOc1ccccc1-c1nnc2n1N=C(c1ccccc1OC)CS2 [triazolothiadiazine, 6J]"
9,12,"COc1cccc(C2=Nn3c(nnc3-c3ccccc3OC)SC2)c1 [triazolothiadiazine, 7A]"
10,8.4,"COc1ccc(-c2nnc3n2N=C(c2cccc(OC)c2)CS3)cc1 [triazolothiadiazine, 7C]"
11,> 20,"COc1cccc(C2=Nn3c(nnc3-c3cccc(OC)c3OC)SC2)c1 [triazolothiadiazine, 7D]"
12,13.4,"COc1cccc(C2=Nn3c(nnc3-c3ccc(OC)cc3OC)SC2)c1 [triazolothiadiazine, 7E]"
13,9,"COc1cccc(C2=Nn3c(nnc3-c3ccc(OC)c(OC)c3)SC2)c1 [triazolothiadiazine, 7G]"
14,13.4,"COc1cccc(C2=Nn3c(nnc3-c3cc(OC)cc(OC)c3)SC2)c1 [triazolothiadiazine, 7H]"

# The next lines start with the compound.
row,SMILES,IC50 [µM]
1,"COc1ccc(C2=Nn3c(nnc3-c3ccc(OC)c(OC)c3)SC2)cc1OC [triazolothiadiazine, 5G]",0.177
2,"COc1cc(OC)cc(-c2nnc3n2N=C(c2ccc(OC)c(OC)c2)CS3)c1 [triazolothiadiazine, 5H]",0.05
3,"COc1ccccc1C1=Nn2c(nnc2-c2ccccc2OC)SC1 [triazolothiadiazine, 6A]",20
4,"COc1cccc(-c2nnc3n2N=C(c2ccccc2OC)CS3)c1 [triazolothiadiazine, 6B]",13.4
5,"COc1ccccc1C1=Nn2c(nnc2-c2cccc(OC)c2OC)SC1 [triazolothiadiazine, 6D]",> 20
6,"COc1ccc(-c2nnc3n2N=C(c2ccccc2OC)CS3)cc1OC [triazolothiadiazine, 6G]",8.9
7,"COc1cc(OC)cc(-c2nnc3n2N=C(c2ccccc2OC)CS3)c1 [triazolothiadiazine, 6H]",13.4
8,"COc1ccccc1C1=Nn2c(nnc2-c2ccccc2O)SC1 [triazolothiadiazine, 6K]",> 20
9,"COc1cccc(C2=Nn3c(nnc3-c3cccc(OC)c3)SC2)c1 [triazolothiadiazine, 7B]",12.6
10,"COc1cccc(C2=Nn3c(nnc3-c3cc(OC)ccc3OC)SC2)c1 [triazolothiadiazine, 7F]",8
